Assays:
PDGFR-α = PDGFR-α (Homo sapiens, UniProt P16234); test: Kinase inhibition assay (ELISA); type: biochemical; conditions: 1 µM ATP
Protocol: (§1) To determine the interaction of our compounds with tyrosine kinases: PDGFR-α, cKIT, PDGFR-β, VEGFR-2 we used enzyme-linked immunosorbent assay (ELISA).
(§2) Determination plates preparation: The plates are processed by neutravidine for 2 h at 30°C. After washing thrice with TBS/0.1% Tween-20 and blocking with 1% BSA/TBS for 1 h at room temperature (RT) 96-well microtiter plates were washed thrice with TBS/0.1% Tween-20 again.
(§3) Reaction: After addition test compounds (in DMSO, DMSO final concentration - 5%) to reaction buffer (20 mM HEPES, pH 7.5, 15 mM MgCl2, 3 mM MnCl2, 2 mM DTT, 0.2 mM Na3VO4, 0.005% Triton X-100; PDGFR-α,: 0.05 µg/ml, 0.5 µg/ml Poly(G,T)-biotin; PDGFR-β: 0.05 µg/ml, 1 µg/ml Poly(G,T)-biotin; c-KIT: 0.03 µg/ml, 0.15 µg/ml Poly(G,T)-biotin; VEGFR-2: 0.07 µg/ml, 0.05 µg/ml Poly(G,T)-biotin) and preincubation of reaction for 10 min at RT and intensive agitation, ATP solution (PDGFR-α, - 1 µM, PDGFR-β - 0.5 µM, c-KIT - 60 µM, VEGFR-2: - 1.5 µM ATP in reaction buffer per well) was added to initiate reaction. Following incubation of mixture for 1 h at 30°C and intensive agitation the reaction was stopped by stop solution (20 mM HEPES, pH 7.5, 50 mM EDTA).
(§4) Kinase activity determination: The reaction mixture was transferred to determination plate. After mix incubation for 1 h at RT and intensive agitation the plates were washed thrice with TBS/0.1% Tween-20. Following mouse monoclonal 0.05 µg/ml Anti-p-Tyr (PY20) HRP antibodies (Santa Cruz Biotechnology) in PBS/BSA were added for 1 h at RT and intensive agitation. After washing, antibody binding was detected by tetramethylbenzidine (TMB) color development (Sigma). Measurement of A450 nm was carried out after addition of H2SO4

VEGFR-2 = VEGFR-2 (Homo sapiens, UniProt P35968); test: Kinase inhibition assay (ELISA); type: biochemical; conditions: 1.5 µM ATP
Chain of VEGFR-2 (P35968 20-1356, species assumed): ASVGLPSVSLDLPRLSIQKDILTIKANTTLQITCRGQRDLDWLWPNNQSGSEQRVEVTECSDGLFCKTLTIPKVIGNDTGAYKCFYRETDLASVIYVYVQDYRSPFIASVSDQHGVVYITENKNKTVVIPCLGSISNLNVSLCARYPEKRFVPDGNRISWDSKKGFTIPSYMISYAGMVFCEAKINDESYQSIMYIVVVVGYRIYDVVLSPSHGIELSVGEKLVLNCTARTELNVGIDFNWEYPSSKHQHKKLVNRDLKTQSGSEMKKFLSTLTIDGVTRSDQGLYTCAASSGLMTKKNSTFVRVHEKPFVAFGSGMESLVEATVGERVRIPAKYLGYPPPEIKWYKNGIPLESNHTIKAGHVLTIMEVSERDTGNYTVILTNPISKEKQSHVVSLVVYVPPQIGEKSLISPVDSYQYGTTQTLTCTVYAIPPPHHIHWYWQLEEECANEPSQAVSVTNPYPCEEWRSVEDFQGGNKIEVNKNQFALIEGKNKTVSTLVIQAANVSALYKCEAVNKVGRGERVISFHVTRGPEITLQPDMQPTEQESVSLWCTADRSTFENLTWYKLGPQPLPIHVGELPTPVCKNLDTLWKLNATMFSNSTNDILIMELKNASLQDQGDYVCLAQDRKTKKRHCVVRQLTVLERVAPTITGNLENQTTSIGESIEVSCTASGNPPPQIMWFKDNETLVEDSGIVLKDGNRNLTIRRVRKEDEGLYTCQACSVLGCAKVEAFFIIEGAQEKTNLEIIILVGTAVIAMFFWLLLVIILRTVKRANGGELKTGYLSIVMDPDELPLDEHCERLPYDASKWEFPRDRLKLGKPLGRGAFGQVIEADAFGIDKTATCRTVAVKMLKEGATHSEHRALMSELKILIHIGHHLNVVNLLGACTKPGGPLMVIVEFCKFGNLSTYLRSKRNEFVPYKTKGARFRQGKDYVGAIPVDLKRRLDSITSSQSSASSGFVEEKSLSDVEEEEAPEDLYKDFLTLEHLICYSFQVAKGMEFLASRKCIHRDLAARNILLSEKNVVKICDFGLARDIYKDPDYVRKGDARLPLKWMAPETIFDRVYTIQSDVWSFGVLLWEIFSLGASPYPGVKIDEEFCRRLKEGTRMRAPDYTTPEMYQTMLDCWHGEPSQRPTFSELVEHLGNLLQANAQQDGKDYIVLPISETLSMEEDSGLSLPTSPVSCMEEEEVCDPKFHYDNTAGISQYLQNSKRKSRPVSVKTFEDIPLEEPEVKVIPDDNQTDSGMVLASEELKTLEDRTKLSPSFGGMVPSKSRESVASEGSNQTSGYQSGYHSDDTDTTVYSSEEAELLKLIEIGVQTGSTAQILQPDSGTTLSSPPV
Protocol: as §1, §2, §3, §4

cKIT = cKIT (Homo sapiens, UniProt P10721); test: Kinase inhibition assay (ELISA); type: biochemical; conditions: 60 µM ATP
Chain of cKIT (P10721 26-976): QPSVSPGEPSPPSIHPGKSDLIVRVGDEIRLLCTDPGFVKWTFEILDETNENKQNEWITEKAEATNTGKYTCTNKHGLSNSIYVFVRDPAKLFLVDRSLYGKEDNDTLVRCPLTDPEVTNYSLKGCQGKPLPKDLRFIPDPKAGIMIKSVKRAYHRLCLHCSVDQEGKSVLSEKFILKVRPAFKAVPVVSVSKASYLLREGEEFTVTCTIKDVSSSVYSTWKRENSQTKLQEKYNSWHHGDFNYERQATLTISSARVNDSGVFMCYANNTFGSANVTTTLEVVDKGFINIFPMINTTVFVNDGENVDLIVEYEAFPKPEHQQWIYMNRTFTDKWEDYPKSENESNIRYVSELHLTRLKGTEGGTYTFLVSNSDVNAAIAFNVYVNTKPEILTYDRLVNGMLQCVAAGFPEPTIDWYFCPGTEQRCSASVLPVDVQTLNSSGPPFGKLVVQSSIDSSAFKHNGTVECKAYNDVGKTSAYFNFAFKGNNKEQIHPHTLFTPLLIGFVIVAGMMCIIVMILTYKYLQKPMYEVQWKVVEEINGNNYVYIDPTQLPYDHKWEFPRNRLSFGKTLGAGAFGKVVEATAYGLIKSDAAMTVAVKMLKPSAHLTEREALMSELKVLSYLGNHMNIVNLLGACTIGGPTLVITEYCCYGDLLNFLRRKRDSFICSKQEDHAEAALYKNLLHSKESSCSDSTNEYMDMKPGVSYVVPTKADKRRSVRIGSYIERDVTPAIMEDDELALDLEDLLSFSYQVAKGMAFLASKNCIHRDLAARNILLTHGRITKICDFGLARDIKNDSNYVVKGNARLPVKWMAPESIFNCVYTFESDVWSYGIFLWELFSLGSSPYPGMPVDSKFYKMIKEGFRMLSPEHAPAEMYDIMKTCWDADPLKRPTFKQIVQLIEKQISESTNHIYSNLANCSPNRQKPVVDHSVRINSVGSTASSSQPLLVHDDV
Protocol: as §1, §2, §3, §4

A172 = test: MTT proliferation / cytotoxicity assay; type: cell-based, human; conditions: glioblastoma cell line
Protocol: (§5) Cell culture. The human cancer cell lines A172, A375, A2780 and U251 were purchased from the American Type Culture Collection. All cells were routinely maintained in DMEM containing 10% fetal bovine serum (Omega Scientific), at 37°C in 5% C02.
(§6) Proliferation assay Inhibition of cell A172, A375, A2780 and U251 cell proliferation was assessed by a MTT assay (MTT = Thiazolyl Blue Tetrazolium Bromide) . Cells were inoculated into 96-well microtiter plates containing 0.5% fetal calf serum and incubated at 37°C, 5% CO2, 95% air, and 100% relative humidity for 24 h prior to addition of testing compounds. Following compounds addition, the plates were incubated for an additional 72 h before processing to measure the cell population. Each compound was tested at eight different concentrations in triplicate, as was a control sample. Growth inhibition of 50% (IC50) is calculated by analysis of the data in Prizm3.4 software.
(§7) Table 8 lists IC50 values for inhibition of growth of several cancer cell lines, including the glioblastoma cell lines A172 and U251, measured in a MTT cytotoxicity assay. Table 8. Data of cytotoxicity assay (MTT) for several cancer cell lines, IC50 [µM]

A2780 = test: MTT proliferation / cytotoxicity assay; type: cell-based, human
Protocol: as §5, §6, §7

A375 = test: MTT proliferation / cytotoxicity assay; type: cell-based, human
Protocol: as §5, §6, §7

U251 = test: MTT proliferation / cytotoxicity assay; type: cell-based, human; conditions: glioblastoma cell line
Protocol: as §5, §6, §7

Chain of PDGFR-α (P16234 24-1089, species assumed): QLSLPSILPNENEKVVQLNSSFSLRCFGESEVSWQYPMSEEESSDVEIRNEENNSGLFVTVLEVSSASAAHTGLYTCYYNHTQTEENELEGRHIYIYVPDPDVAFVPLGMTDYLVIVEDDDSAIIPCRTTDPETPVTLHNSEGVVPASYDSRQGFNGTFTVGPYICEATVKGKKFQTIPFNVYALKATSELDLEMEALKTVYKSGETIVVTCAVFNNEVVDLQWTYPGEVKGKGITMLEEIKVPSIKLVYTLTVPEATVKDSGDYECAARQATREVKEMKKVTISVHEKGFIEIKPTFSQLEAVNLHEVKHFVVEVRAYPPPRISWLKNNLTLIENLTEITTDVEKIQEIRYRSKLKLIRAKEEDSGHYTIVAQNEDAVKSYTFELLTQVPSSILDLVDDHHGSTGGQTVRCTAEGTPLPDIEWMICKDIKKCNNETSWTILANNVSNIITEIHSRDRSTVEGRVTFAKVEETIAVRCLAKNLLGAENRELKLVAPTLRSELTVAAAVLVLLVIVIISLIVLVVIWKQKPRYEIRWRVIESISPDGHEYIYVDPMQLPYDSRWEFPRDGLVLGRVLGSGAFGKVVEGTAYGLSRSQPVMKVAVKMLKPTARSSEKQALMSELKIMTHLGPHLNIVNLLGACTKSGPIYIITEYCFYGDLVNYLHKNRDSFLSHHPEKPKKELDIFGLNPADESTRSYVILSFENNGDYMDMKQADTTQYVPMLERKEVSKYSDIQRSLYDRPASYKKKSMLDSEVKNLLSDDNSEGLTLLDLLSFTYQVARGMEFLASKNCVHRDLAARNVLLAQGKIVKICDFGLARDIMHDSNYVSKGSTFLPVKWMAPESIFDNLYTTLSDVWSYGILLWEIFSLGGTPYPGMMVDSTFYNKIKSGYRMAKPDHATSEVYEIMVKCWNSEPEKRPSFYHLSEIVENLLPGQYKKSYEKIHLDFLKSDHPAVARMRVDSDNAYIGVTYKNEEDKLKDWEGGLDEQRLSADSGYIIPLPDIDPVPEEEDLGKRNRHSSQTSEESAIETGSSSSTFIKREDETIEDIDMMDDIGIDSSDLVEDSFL

Row | Compound | IC50 (PDGFR-α) [nM] | IC50 (VEGFR-2) [nM] | IC50 (cKIT) [nM] | IC50 (A172; Homo sapiens, A 172, 72 h) [µM] | IC50 (A2780; Homo sapiens, A2780, 72 h) [µM] | IC50 (A375; Homo sapiens, A-375, 72 h) [µM] | IC50 (U251; Homo sapiens, U-251, 72 h) [µM] | IC50 (A172; 72 h) [µM] | IC50 (A2780; 72 h) [µM] | IC50 (A375; 72 h) [µM] | IC50 (U251; 72 h) [µM]
1 | c1ccc(-c2cnc(Nc3cc(CCC4CCCN4)ccn3)s2)cc1 (stereo not drawn) [Example 015, (5-Phenyl-thiazol-2-yl)-[4-(2-pyrrolidin-2-yl-ethyl)-pyridin-2-yl]-amine] | < 10 | > 10 | > 100 | > 1 | > 1 | > 1 | > 10 | – | – | – | –
2 | CS(=O)(=O)N1CCC(Cc2ccnc(Nc3ncc(-c4ccc(F)cc4)s3)c2)CC1 [Example 005, [5-(4-Fluoro-phenyl)-thiazol-2-yl]-[4-(1-methanesulfonyl-piperidin-4-ylmethyl)-pyridin-2-yl]-amine] | < 10 | > 10 | > 10 | > 1 | > 1 | > 1 | > 10 | – | – | – | –
3 | OCCN1CCC(c2ccnc(Nc3ncc(-c4cccc(F)c4)s3)c2)CC1 [Example 037, 2-{2'-[5-(3-Fluoro-phenyl)-thiazol-2-ylamino]-3,4,5,6-tetrahydro-2H-[4,4']bipyridinyl-1-yl}-ethanol] | < 10 | > 10 | < 10 | > 10 | > 1 | > 10 | > 1 | – | – | – | –
4 | OCCN1CCC(c2cc(Nc3ncc(-c4ccccc4)s3)ccn2)CC1 [Example 033, 2-[4-(5-Phenyl-thiazol-2-ylamino)-3',4',5',6'-tetrahydro-2'H-[2,4']bipyridinyl-1'-yl]-ethanol] | > 10 | > 100 | > 100 | > 10 | > 10 | > 10 | > 10 | – | – | – | –
5 | [5-(4-Fluoro-phenyl)-thiazol-2-yl]-[6-(octahydro-isoindol-4-ylmethyl)-pyridin-2-yl]-amine [Example 021] | > 10 | > 100 | > 10 | – | – | – | – | > 1 | > 1 | > 1 | > 1
6 | Fc1ccc(-c2cnc(Nc3cc(CC4CCNCC4)ccn3)s2)cc1 [Example 001, [5-(4-Fluoro-phenyl)-thiazol-2-yl]-(4-piperidin-4-ylmethyl-pyridin-2-yl)-amine] | < 10 | > 10 | < 10 | > 10 | > 1 | > 1 | > 1 | – | – | – | –
7 | OCCN1CCC(c2ccnc(Nc3ncc(-c4cc(F)cc(F)c4)s3)c2)CC1 [Example 039, 2-{2'-[5-(3,5-Difluoro-phenyl)-thiazol-2-ylamino]-3,4,5,6-tetrahydro-2H-[4,4']bipyridinyl-1-yl}-ethanol] | < 10 | > 10 | > 10 | > 1 | > 10 | > 1 | > 10 | – | – | – | –
8 | Fc1ccc(-c2cnc(Nc3cccc(CC4CCCNCC4)n3)s2)cc1 (stereo not drawn) [Example 006, (6-Azepan-4-ylmethyl-pyridin-2-yl)-[5-(4-fluoro-phenyl)-thiazol-2-yl]-amine] | > 10 | > 100 | > 10 | > 1 | ≤ 1 | ≤ 1 | > 1 | – | – | – | –
9 | OCCN1CCC(c2ccnc(Nc3ncc(-c4ccc(F)c(F)c4)s3)c2)CC1 [Example 038, 2-{2'-[5-(3,4-Difluoro-phenyl)-thiazol-2-ylamino]-3,4,5,6-tetrahydro-2H-[4,4']bipyridinyl-1-yl}-ethanol] | < 10 | > 10 | > 10 | ≤ 1 | > 10 | > 1 | > 1 | – | – | – | –
10 | c1ccc(-c2cnc(Nc3cc(C4CCCNC4)ccn3)s2)cc1 (stereo not drawn) [Example 028, (1,2,3,4,5,6-Hexahydro-[3,4']bipyridinyl-2'-yl)-(5-phenyl-thiazol-2-yl)-amine] | < 10 | 32 | > 100 | > 1 | > 1 | > 10 | > 10 | – | – | – | –
11 | CC(=O)N1CCOCC(Cc2ccnc(Nc3ncc(-c4ccc(F)cc4)s3)c2)C1 (stereo not drawn) [Example 012, 1-(6-{2-[5-(4-Fluoro-phenyl)-thiazol-2-ylamino]-pyridin-4-ylmethyl}-[1,4]oxazepan-4-yl)-ethanone] | < 10 | > 10 | > 10 | > 1 | > 1 | > 1 | > 10 | – | – | – | –
12 | CN1CCCC(Cc2cccc(Nc3ncc(-c4ccc(F)cc4)s3)n2)CC1 (stereo not drawn) [Example 008, [5-(4-Fluoro-phenyl)-thiazol-2-yl]-[6-(1-methyl-azepan-4-ylmethyl)-pyridin-2-yl]-amine] | > 10 | > 1000 | > 10 | > 10 | > 1 | > 1 | > 1 | – | – | – | –
13 | CC(=O)N1CCC(Cc2ccnc(Nc3ncc(-c4ccc(F)cc4)s3)c2)CC1 [Example 002, 1-(4-{2-[5-(4-Fluoro-phenyl)-thiazol-2-ylamino]-pyridin-4-ylmethyl}-piperidin-1-yl)-ethanone] | < 10 | > 10 | < 10 | > 1 | > 1 | > 1 | > 10 | – | – | – | –
14 | OCCN1CCC(c2ccnc(Nc3ncc(-c4ccccc4F)s3)c2)CC1 [Example 036, 2-{2'-[5-(2-Fluoro-phenyl)-thiazol-2-ylamino]-3,4,5,6-tetrahydro-2H-[4,4']bipyridinyl-1-yl}-ethanol] | < 10 | > 10 | < 10 | > 10 | > 1 | > 1 | > 1 | – | – | – | –
15 | c1ccc(-c2cnc(Nc3cccc(CC4CC5CCC(C4)N5)n3)s2)cc1 (stereo not drawn) [Example 022, [6-(8-Aza-bicy-clo[3.2.1]oct-3-ylmethyl)-pyridin-2-yl]-(5-phenyl-thiazol-2-yl)-amine] | > 10 | > 100 | > 10 | > 1 | ≤ 1 | ≤ 1 | > 1 | – | – | – | –

From EP2719696A1, “NOVEL KINASE INHIBITORS” (Asinex Limited, priority 2011, dated 2012)
